Assay results reported in article PMC10388311, “Innovative Strategy toward Mutant CFTR Rescue in Cystic Fibrosis: Design and Synthesis of Thiadiazole Inhibitors of the E3 Ligase RNF5” (Journal of Medicinal Chemistry, 2023).
Entries after “also recorded” stand apart in the source; their conditions may differ.

What was measured:
[1] = target: F508del-CFTR in CFBE41o– cells (Homo sapiens, UniProt Q99942); assay: HS-YFP microfluorimetric assay of F508del-CFTR rescue (corrector activity); format: cell-based; conditions: for F508del-CFTR corrector activity compared with inh-2 (CFTR activity, primary screen): CFBE41o– cells co-expressing F508del-CFTR and HS-YFP, 24 h treatment, Figure 5; for improvement of the rescue elicited by the double combination VX-661 + VX-445 / mutant CFTR activity upon co-treatment with VX-809 or VX-445: RNF5 inhibitor 5 μM; for improvement of the rescue elicited by the double combination VX-661 + VX-445: VX-661 + VX-445 10 μM + 3 μM; for mutant CFTR activity upon co-treatment with VX-809 or VX-445: VX-809 3 μM, VX-445 3 μM
F508del-CFTR in CFBE41o– cells, sequence (Q99942 2-180): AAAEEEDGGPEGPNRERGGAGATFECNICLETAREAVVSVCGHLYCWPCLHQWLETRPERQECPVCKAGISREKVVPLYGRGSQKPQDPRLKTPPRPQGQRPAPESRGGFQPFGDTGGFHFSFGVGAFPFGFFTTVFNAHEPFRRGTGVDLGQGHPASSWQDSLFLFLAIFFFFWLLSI
F508del-CFTR in CFBE41o– cells, sequence (P13569 with tags, fused parts or gaps DEL508-508 partner): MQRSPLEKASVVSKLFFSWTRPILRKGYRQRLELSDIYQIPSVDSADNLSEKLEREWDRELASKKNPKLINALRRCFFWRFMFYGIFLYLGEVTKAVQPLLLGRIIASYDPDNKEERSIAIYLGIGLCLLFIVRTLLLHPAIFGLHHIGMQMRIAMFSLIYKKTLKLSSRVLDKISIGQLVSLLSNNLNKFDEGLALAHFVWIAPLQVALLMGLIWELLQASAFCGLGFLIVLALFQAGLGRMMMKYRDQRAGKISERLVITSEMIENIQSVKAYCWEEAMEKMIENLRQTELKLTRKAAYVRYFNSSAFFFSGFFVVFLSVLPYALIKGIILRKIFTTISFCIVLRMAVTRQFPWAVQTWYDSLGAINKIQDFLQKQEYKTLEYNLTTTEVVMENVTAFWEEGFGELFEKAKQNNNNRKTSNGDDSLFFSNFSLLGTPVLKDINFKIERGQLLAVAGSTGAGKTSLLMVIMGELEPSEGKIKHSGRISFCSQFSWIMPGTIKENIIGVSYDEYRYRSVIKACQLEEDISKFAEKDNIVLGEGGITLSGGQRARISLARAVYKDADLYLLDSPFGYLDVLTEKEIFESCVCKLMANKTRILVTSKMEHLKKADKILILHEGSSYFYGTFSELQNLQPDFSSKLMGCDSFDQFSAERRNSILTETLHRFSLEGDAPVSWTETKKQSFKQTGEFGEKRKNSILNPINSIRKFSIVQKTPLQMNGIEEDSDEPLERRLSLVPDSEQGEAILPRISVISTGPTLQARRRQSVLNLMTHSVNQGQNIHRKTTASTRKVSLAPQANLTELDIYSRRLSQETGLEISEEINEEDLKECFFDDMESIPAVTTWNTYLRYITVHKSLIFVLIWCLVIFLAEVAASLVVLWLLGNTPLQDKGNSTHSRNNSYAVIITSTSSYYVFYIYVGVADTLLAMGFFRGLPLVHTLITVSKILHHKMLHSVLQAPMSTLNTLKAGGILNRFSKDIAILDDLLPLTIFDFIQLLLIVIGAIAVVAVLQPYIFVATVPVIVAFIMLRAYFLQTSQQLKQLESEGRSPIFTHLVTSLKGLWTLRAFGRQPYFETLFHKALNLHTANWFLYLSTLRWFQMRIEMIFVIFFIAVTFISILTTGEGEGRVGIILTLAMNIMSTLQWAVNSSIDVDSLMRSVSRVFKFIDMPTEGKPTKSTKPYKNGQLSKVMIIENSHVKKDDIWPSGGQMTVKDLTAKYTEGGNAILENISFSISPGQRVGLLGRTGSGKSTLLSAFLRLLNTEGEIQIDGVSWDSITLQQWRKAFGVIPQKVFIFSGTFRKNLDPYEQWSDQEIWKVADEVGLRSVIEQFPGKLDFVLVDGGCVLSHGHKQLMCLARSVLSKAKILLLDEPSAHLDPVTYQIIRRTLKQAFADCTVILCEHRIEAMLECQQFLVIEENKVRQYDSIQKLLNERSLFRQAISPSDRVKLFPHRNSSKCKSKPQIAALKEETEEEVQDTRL
In short: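 CFBE41o– cells stably co-expressing F508del-CFTR and HS-YFP were treated with compounds 24 h after seeding; VX-809 (1 μM) served as positive control. F508del-CFTR was stimulated with forskolin (20 μM) plus VX-770 (1 μM) for 25 min before iodide injection. I– influx rate was taken as initial slope (dF/dt) from an exponential fit of YFP quenching.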

[2] = target: T1, recombinant truncated RNF5 (aa 1–117) (Homo sapiens, UniProt Q99942); assay: MicroScale Thermophoresis (MST) binding check; conditions: RED-NHS labeled RNF5 (aa 1–117); compound at maximum concentration allowed by solubility (12: 100 M [sic])
T1 construct: human RNF5 protein (aa 1–117) truncated to exclude the transmembrane domains; GST (followed by TEV protease site) (N, cleaved yes); host or cells: Escherichia coli BL21(DE3)
T1 sequence (Q99942 1-117): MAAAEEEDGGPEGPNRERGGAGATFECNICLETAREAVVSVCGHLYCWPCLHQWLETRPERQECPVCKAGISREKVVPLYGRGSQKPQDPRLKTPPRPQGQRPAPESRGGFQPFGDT
Excerpt: The bindings of compounds 12, 40, and 42 were initially evaluated by MicroScale Thermophoresis (MST) using a purified recombinant truncated form of RNF5 (aa 1–117), lacking the C-terminal transmembrane domains. The protein was covalently labeled with a red dye (NHS) on the primary amines (lysine residues). […] NMR experiments on the recombinant RNF5 form were further performed to test the direct binding of the three compounds to the protein with a more sensitive, label-free, independent approach. Analogs 12, 40, and 42 were tested at 50 μM in the absence and in the presence of 3 μM RNF5 (1–117) protein. […] Indeed, for all three compounds, the NMR signals of their methyls are present in the STD spectra, and in the WaterLOGSY spectra, their signals change from negative to positive in the presence of the protein, indisputably highlighting the formation of compound–protein binding events. […] It has to be noted that NMR is a very sensitive technique that allows detecting also compounds weakly binding to their target protein independent of the possible downstream biological effects. Indeed, we can speculate that compounds 40 and 42 may bind to RNF5 without inhibiting its ubiquitin ligase activity, thus not leading to mutant CFTR rescue. These compounds could even act as RNF5 activators, similar to analog-1.
A construct coding for human RNF5 protein (aa 1–117) truncated to exclude the transmembrane domains, with an N-terminal GST-tag followed by the recognition site for TEV protease (pET vector backbone), was purchased from CliniSciences. A similar construct was recently described in the work of Ruan et al.[44] […]
Purified RNF5 was labeled using a Monolith protein labeling kit RED-NHS 2nd generation (NanoTemper Technologies, München, Germany) following manufacturer’s instructions. Labeled protein (5 nM) was first tested in a pre-test assay for optimal fluorescence, absence of aggregation, and sticking to capillaries using MST buffer [PBS, 0.05% Tween-20, 0.1% PEG-8000, 1 μM ZnCl2] with or without 1 mM DTT. […]

| Compound | F508del-CFTR corrector activity compared with inh-2 (CFTR activity, primary screen) [1] | direct binding to RNF5 by MST (binding check) [2] | F508del-CFTR activity in cells transfected with NT or RNF5 siRNA ([1]; CFBE41o– cells, 16 5 μM alone or combined with VX-661 + VX-445 (10 μM + 3 μM), 24 h) | improvement of the rescue elicited by the double combination VX-661 + VX-445 ([1]; CFBE41o– cells, 24 h) | mutant CFTR activity upon co-treatment with VX-809 or VX-445 ([1]; CFBE41o– cells, 24 h) |
| --- | --- | --- | --- | --- | --- |
| Cc1ns/c(=N\c2ccccn2)n1Cc1ccccc1 [Compound 42, (Z)-4-Benzyl-3-methyl-N-(pyridin-2-yl)-1,2,4-thiadiazol-5(4H)-imine] | inactive compounds; also recorded: almost inactive as CFTR correctors | observed only for compound 12 | – | – | – |
| COc1cccc(Cn2c(C)ns/c2=N\C(=N\c2ccccc2)c2ccccc2)c1 [Compound 16, (E)-N-((Z)-4-(3-Methoxybenzyl)-3-methyl-1,2,4-thiadiazol-5(4H)-ylidene)-N′-phenylbenzimidamide] | increased activity; also recorded: greater F508del-CFTR rescue than inh-2 | – | increased the F508del-CFTR activity only in cells transfected with NT siRNA, but not in those transfected with RNF5 siRNA | able to further improve the rescue | significantly increased mutant CFTR activity |
| Cc1ns/c(=N\C(=N\c2ccncc2)c2ccccc2)n1Cc1ccccc1 [Compound 40, (E)-N-((Z)-4-Benzyl-3-methyl-1,2,4-thiadiazol-5(4H)-ylidene)-N′-(pyridin-4-yl)benzimidamide] | inactive analogs; also recorded: almost inactive as CFTR correctors | observed only for compound 12 | – | – | – |
| Cc1ns/c(=N\C(=N\c2ccccc2)c2ccccc2)n1Cc1ccc(C(=O)O)cc1 [Compound 12, 4-(((Z)-3-Methyl-5-(((E)-phenyl(phenylimino)methyl)imino)-1,2,4-thiadiazol-4(5H)-yl)methyl)benzoic Acid] | reduced potency; also recorded: lower F508del-CFTR activity compared to inh-2 | compound 12 is binding to RNF5; also recorded: evidence of direct binding | – | – | – |
| Cc1ns/c(=N\C(=N\c2ccccc2)c2ccccc2)n1Cc1ccccc1 [inh-2, reference compound] | – | – | – | only analogue 16 was able to further improve the rescue | significantly increased mutant CFTR activity |
